Data taken from patent US11477982B2, “2-amino-5-oxyalkyl-pyrimidine derivatives and their use for controlling undesired plant growth” (Bayer CropScience Aktiengesellschaft, priority 2017, dated 2022).

How the values were obtained:
Type in all cases: in vivo
[1] = test system: AMARE: Amaranthus retroflexus; experiment: Post-emergence herbicidal effect; settings: dosage 320 g/ha
Method in brief: (§1)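 Weeds grown from seed in sandy loam in the greenhouse were sprayed at the one-leaf stage, 2 to 3 weeks after sowing. Compounds formulated as WP or EC were applied as aqueous suspension or emulsion with 0.5% additive at 600 l/ha. Activity was scored visually after about 3 weeks versus untreated controls (100% = dead, 0% = as control).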

VERPE: Veronica persica [2] = experiment: Post-emergence herbicidal effect; settings: dosage 320 g/ha
Method in brief: as §1

PHBPU: Ipomoea purpurea [3] = experiment: Post-emergence herbicidal effect
Method in brief: as §1

[4] = test system: MATIN: Matricaria inodora; experiment: Post-emergence herbicidal effect; settings: dosage 320 g/ha
Method in brief: as §1

VIOTR: Viola tricolor [5] = experiment: Post-emergence herbicidal effect; settings: dosage 320 g/ha
Method in brief: as §1

SETVI: Setaria viridis [6] = experiment: Post-emergence herbicidal effect
Method in brief: as §1

[7] = test system: ABUTH: Abutilon theophrasti; experiment: Post-emergence herbicidal effect
Method in brief: as §1

[8] = test system: POLCO: Polygonum convolvulus; experiment: Post-emergence herbicidal effect
Method in brief: as §1

STEME: Stellaria media [9] = experiment: Post-emergence herbicidal effect; settings: dosage 320 g/ha
Method in brief: as §1

[10] = test system: ECHCG: Echinochloa crus-galli; experiment: Post-emergence herbicidal effect
Method in brief: as §1

[11] = test system: ALOMY: Alopecurus myosuroides; experiment: Post-emergence herbicidal effect
Method in brief: as §1

LOLRI: Lolium rigidum [12] = experiment: Post-emergence herbicidal effect
Method in brief: as §1

HORMU: Hordeum murinum [13] = experiment: Post-emergence herbicidal effect
Method in brief: as §1

[14] = test system: AMARE: Amaranthus retroflexus; experiment: Pre-emergence herbicidal effect; settings: pre-emergence; dosage 320 g/ha
Method in brief: (§2)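 Pre-emergence soil-surface spray. Formulation WP/EC, aqueous, +0.5% additive, 600 l/ha. Greenhouse ~3 wk; visual % score vs untreated (0% = control, 100% = dead).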

VERPE: Veronica persica [15] = experiment: Pre-emergence herbicidal effect; settings: dosage 320 g/ha
Method in brief: as §2

PHBPU: Ipomoea purpurea [16] = experiment: Pre-emergence herbicidal effect
Method in brief: as §2

[17] = test system: MATIN: Matricaria inodora; experiment: Pre-emergence herbicidal effect; settings: pre-emergence; dosage 320 g/ha
Method in brief: as §2

VIOTR: Viola tricolor [18] = experiment: Pre-emergence herbicidal effect; settings: dosage 320 g/ha
Method in brief: as §2

SETVI: Setaria viridis [19] = experiment: Pre-emergence herbicidal effect; settings: pre-emergence; dosage 320 g/ha
Method in brief: as §2

[20] = test system: ABUTH: Abutilon theophrasti; experiment: Pre-emergence herbicidal effect
Method in brief: as §2

AVEFA: Avena fatua = experiment: Pre-emergence herbicidal effect
Method in brief: as §2

[21] = test system: POLCO: Polygonum convolvulus; experiment: Pre-emergence herbicidal effect; settings: dosage 320 g/ha
Method in brief: as §2

STEME: Stellaria media [22] = experiment: Pre-emergence herbicidal effect; settings: pre-emergence; dosage 320 g/ha
Method in brief: as §2

[23] = test system: ECHCG: Echinochloa crus-galli; experiment: Pre-emergence herbicidal effect; settings: pre-emergence; dosage 320 g/ha
Method in brief: as §2

[24] = test system: ALOMY: Alopecurus myosuroides; experiment: Pre-emergence herbicidal effect; settings: pre-emergence; dosage 320 g/ha
Method in brief: as §2

LOLRI: Lolium rigidum [25] = experiment: Pre-emergence herbicidal effect; settings: dosage 320 g/ha
Method in brief: as §2

HORMU: Hordeum murinum [26] = experiment: Pre-emergence herbicidal effect; settings: pre-emergence; dosage 320 g/ha
Method in brief: as §2

Cc1ccc2c(c1)[C@H](Nc1ncc(C(C)O)c(C)n1)[C@@H](C)C2 (stereo partly drawn) [Example 1.7, 1-(2-{[(1R,2S)-2,6-Dimethyl-2,3-dihydro-1H-inden-1-yl]amino}-4-methylpyrimidin-5-yl)ethanol]
Herbicidal action against AMARE [1]: 100%
Herbicidal action against VERPE (VERPE: Veronica persica [2]): 90%
Herbicidal action against PHBPU (PHBPU: Ipomoea purpurea [3]; dosage 80 g/ha): 60%
Herbicidal action against PHBPU (PHBPU: Ipomoea purpurea [3]; dosage 320 g/ha): 100%
Herbicidal action against MATIN [4]: 90%
Herbicidal action against VIOTR (VIOTR: Viola tricolor [5]): 90%
Herbicidal action against SETVI (SETVI: Setaria viridis [6]; dosage 80 g/ha): 100%
Herbicidal action against SETVI (SETVI: Setaria viridis [6]; dosage 320 g/ha): 100%
Herbicidal action against ABUTH ([7]; dosage 80 g/ha): 60%
Herbicidal action against ABUTH ([7]; dosage 320 g/ha): 80%
Herbicidal action against POLCO ([8]; dosage 80 g/ha): 80%
Herbicidal action against POLCO ([8]; dosage 320 g/ha): 80%
Herbicidal action against STEME (STEME: Stellaria media [9]): 100%
Herbicidal action against ECHCG ([10]; dosage 80 g/ha): 20%
Herbicidal action against ECHCG ([10]; dosage 320 g/ha): 100%
Herbicidal action against ALOMY ([11]; dosage 80 g/ha): 80%
Herbicidal action against ALOMY ([11]; dosage 320 g/ha): 100%
Herbicidal action against LOLRI (LOLRI: Lolium rigidum [12]; dosage 80 g/ha): 100%
Herbicidal action against LOLRI (LOLRI: Lolium rigidum [12]; dosage 320 g/ha): 100%
Herbicidal action against HORMU (HORMU: Hordeum murinum [13]; dosage 80 g/ha): 40%
Herbicidal action against HORMU (HORMU: Hordeum murinum [13]; dosage 320 g/ha): 100%
Herbicidal action against AMARE [14]: 100%
Herbicidal action against VERPE (VERPE: Veronica persica [15]): 100%
Herbicidal action against PHBPU (PHBPU: Ipomoea purpurea [16]; dosage 80 g/ha): 80%
Herbicidal action against PHBPU (PHBPU: Ipomoea purpurea [16]; dosage 320 g/ha): 80%
Herbicidal action against MATIN [17]: 100%
Herbicidal action against VIOTR (VIOTR: Viola tricolor [18]): 100%
Herbicidal action against SETVI (SETVI: Setaria viridis [19]): 100%
Herbicidal action against ABUTH ([20]; dosage 80 g/ha): 90%
Herbicidal action against ABUTH ([20]; dosage 320 g/ha): 100%
Herbicidal action against AVEFA (AVEFA: Avena fatua; dosage 80 g/ha): 70%
Herbicidal action against AVEFA (AVEFA: Avena fatua; dosage 320 g/ha): 90%
Herbicidal action against POLCO [21]: 100%
Herbicidal action against STEME (STEME: Stellaria media [22]): 100%
Herbicidal action against ECHCG [23]: 100%
Herbicidal action against ALOMY [24]: 100%
Herbicidal action against LOLRI (LOLRI: Lolium rigidum [25]): 100%
Herbicidal action against HORMU (HORMU: Hordeum murinum [26]): 100%
